Test results published in ChEMBL document CHEMBL5321293, “Discovery of ERD-3111 as a Potent and Orally Efficacious Estrogen Receptor PROTAC Degrader with Strong Antitumor Activity” (J Med Chem, 2023).
Each block holds one compound with its values, some of them ahead of it. The source made the active and inactive calls. The calls are words filed in the database; no cut-off is given here.

Key:
[1] = biological target: T1, Protein cereblon/Estrogen receptor (Homo sapiens, UniProt P03372+Q96SW2); test: Protac activity at human ERalpha in human MCF7 cells assessed as protein degradation incubated for 12 hrs by ICW blot assay; type: cell-based
Target sequence in this assay (P03372 whole entry): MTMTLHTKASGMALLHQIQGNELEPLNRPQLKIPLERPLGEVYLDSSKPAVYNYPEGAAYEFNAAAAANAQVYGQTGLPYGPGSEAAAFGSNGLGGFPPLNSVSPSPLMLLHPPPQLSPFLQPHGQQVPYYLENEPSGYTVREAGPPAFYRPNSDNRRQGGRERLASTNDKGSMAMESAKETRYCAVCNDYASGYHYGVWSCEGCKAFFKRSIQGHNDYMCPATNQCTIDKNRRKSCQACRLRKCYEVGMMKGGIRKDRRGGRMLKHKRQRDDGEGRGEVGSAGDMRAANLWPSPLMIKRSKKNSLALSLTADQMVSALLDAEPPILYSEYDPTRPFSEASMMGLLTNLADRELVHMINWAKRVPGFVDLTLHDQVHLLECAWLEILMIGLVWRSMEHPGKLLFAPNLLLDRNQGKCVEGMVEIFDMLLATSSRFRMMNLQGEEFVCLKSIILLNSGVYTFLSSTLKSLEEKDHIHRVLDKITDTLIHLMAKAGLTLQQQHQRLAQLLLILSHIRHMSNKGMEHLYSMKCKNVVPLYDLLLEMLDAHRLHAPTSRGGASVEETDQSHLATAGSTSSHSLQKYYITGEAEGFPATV
Target sequence in this assay (Q96SW2 whole entry): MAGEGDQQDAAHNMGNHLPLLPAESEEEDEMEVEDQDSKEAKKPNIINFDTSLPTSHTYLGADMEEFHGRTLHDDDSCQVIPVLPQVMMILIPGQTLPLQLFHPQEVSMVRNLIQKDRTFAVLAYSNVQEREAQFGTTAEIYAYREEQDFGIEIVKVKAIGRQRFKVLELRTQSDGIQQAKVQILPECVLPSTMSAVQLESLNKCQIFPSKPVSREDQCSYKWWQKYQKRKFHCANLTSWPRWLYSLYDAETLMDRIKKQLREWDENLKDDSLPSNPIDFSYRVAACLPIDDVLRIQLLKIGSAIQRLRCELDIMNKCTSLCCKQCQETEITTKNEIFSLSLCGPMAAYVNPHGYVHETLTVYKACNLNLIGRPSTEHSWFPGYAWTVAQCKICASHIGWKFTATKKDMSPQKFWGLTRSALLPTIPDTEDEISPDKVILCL

[2] = biological target: T1, Protein cereblon/Estrogen receptor; test: Protac activity at human ERalpha in human MCF7 cells assessed as induction of ERalpha degradation by measuring maximum efficacy at 1 uM incubated for 12 hrs by ICW blot assay relative to control; type: cell-based
Target sequence in this assay (P03372 whole entry, looked up): as the sequence (P03372 whole entry) above
Target sequence in this assay (Q96SW2 whole entry, looked up): as the sequence (Q96SW2 whole entry) above

[3] = Plasma concentration in Sprague-Dawley rat at 5 mg/kg,po and mesured after 1 hrs by LC-MS/MS analysis; type: ADME, organism-based
[4] = Plasma concentration in Sprague-Dawley rat at 5 mg/kg,po and mesured after 3 hrs by LC-MS/MS analysis; type: ADME, organism-based
[5] = Plasma concentration in Sprague-Dawley rat at 5 mg/kg,po and mesured after 6 hrs by LC-MS/MS analysis; type: ADME, organism-based
[6] = Downregulation of ERalpha protein expression in tumor of CB17 SCID mouse xenografted with human MCF7 cells harboring wild type ESR1 at 30 mg/kg, po qd for 3 days and measured after 24 hrs last dose by Western blot analysis relative to control; type: functional; conditions: time 3 day
[7] = Downregulation of ERalpha protein expression in tumor of CB17 SCID mouse xenografted with human MCF7 cells harboring wild type ESR1 at 30 mg/kg, po qd for 3 days and measured after 3 hrs last dose by Western blot analysis relative to control; type: functional; conditions: time 3 day
[8] = Downregulation of ERalpha protein expression in tumor of CB17 SCID mouse xenografted with human MCF7 cells harboring ESR1 Y537S mutant at 30 mg/kg, po qd for 3 days and measured after 6 hrs last dose by Western blot analysis relative to control; type: functional; conditions: time 3 day
MCF7 [9] = test: Antitumor activity against human MCF7 cells harboring wild type ESR1 xenografted in CB17 SCID mouse assessed as tumor growth inhibition at 10 mg/kg, po qd for 5 weeks; type: functional; conditions: MCF7, 840 h, read-out: TGI
MCF7 [10] = test: Antitumor activity against human MCF7 cells harboring ESR1 Y537S mutant xenografted in CB17 SCID mouse assessed as tumor growth inhibition at 30 mg/kg, po qd for 4 weeks; type: functional
MCF7 [11] = test: Antitumor activity against human MCF7 cells harboring ESR1 Y537S mutant xenografted in CB17 SCID mouse assessed as tumor growth inhibition at 30 mg/kg, po qd for 4 weeks and measured 30 days post last dose; type: functional
MCF7 [12] = test: Antitumor activity against human MCF7 cells harboring ESR1 D538G mutant xenografted in CB17 SCID mouse assessed as tumor growth inhibition at 30 mg/kg, po qd for 4 weeks; type: functional; conditions: MCF7, 672 h, read-out: TGI
MCF7 [13] = test: Antitumor activity against human MCF7 cells harboring ESR1 D538G mutant xenografted in CB17 SCID mouse assessed as tumor growth inhibition at 30 mg/kg, po qd for 4 weeks and measured 1 week post last dose; type: functional, organism-based
[14] = Toxicity in CB17 SCID mouse xenografted with human MCF7 cells harboring wild type ESR1 assessed as body weight change at 10 mg/kg,po qd for 5 weeks; type: organism-based; conditions: in vivo, 840 h
[15] = Toxicity in CB17 SCID mouse xenografted with human MCF7 cells harboring ESR1 Y537S mutant assessed as body weight change at 30 mg/kg,po qd for 4 weeks; type: organism-based; conditions: in vivo, 672 h
[16] = Toxicity in CB17 SCID mouse xenografted with human MCF7 cells harboring ESR1 D538G mutant assessed as body weight change at 30 mg/kg,po qd for 4 weeks; type: organism-based; conditions: in vivo, 672 h
[17] = Plasma protein binding in human; type: ADME, cell-free; conditions: read-out: PPB (converted)
[18] = Plasma protein binding in dog; type: ADME, cell-free, Canis lupus familiaris; conditions: read-out: PPB (converted)
[19] = Plasma protein binding in monkey; type: ADME, cell-free, Macaca mulatta; conditions: rhesus monkey, read-out: PPB (converted)
[20] = Plasma protein binding in rat; type: ADME, cell-free; conditions: read-out: PPB (converted)
[21] = Plasma protein binding in mouse; type: ADME, cell-free; conditions: read-out: PPB (converted)
[22] = Volume of distribution at steady state in Sprague-Dawley rat at 1 mg/kg, iv and measured upto 24 hrs by LC-MS/MS analysis; conditions: in vivo
[23] = Clearance in Sprague-Dawley rat at 1 mg/kg, iv and measured upto 24 hrs by LC-MS/MS analysis; conditions: in vivo
[24] = Half life in Sprague-Dawley rat at 3 mg/kg, po and measured upto 24 hrs by LC-MS/MS analysis; conditions: in vivo
[25] = AUC in Sprague-Dawley rat at 3 mg/kg, po and measured upto 24 hrs by LC-MS/MS analysis; type: ADME, organism-based; set-up: dose 3 mg/kg, time < 24 hrs, route po; conditions: in vivo
in vivo [26] = conditions: Sprague-Dawley, rat, po, 3 mg/kg
in vivo [27] = conditions: Sprague-Dawley, rat, po, 3 mg/kg; remark: listed apart in the source
[28] = Plasma concentration in Sprague-Dawley rat at 3 mg/kg,po and mesured after 1 hrs by LC-MS/MS analysis; type: ADME, organism-based
[29] = Plasma concentration in Sprague-Dawley rat at 3 mg/kg,po and mesured after 3 hrs by LC-MS/MS analysis; type: ADME, organism-based
[30] = Plasma concentration in Sprague-Dawley rat at 3 mg/kg,po and mesured after 6 hrs by LC-MS/MS analysis; type: ADME, organism-based
[31] = Plasma concentration in Sprague-Dawley rat at 3 mg/kg,po and mesured after 24 hrs by LC-MS/MS analysis; type: ADME, organism-based
[32] = rat, in vivo, po, 3 mg/kg, 24 h

DC50 [1]: 0.8 nM
Emax [2]: 106%
concentration at 1 h [3]: 8.3 ng/mL
concentration at 3 h [4]: 14 ng/mL
concentration at 6 h [5]: 10.3 ng/mL
SMILES: C[C@@H]1Cc2c([nH]c3ccccc23)[C@@H](c2c(F)cc(N3CCC4(CCN(C(=O)CN5Cc6cc7c(cc6C5)C(=O)N(C5CCC(=O)NC5=O)C7=O)CC4)CC3)cc2F)N1CC(F)F (stereo not given in full)

fraction unbound [17]: 0.875
fraction unbound [18]: 0.83
fraction unbound [19]: 0.856
fraction unbound [20]: 0.635
fraction unbound [21]: 0.737
Vd at 24 h [22]: 5 L/kg
clearance at 24 h [23]: 29.2 mL/min/kg
half-life at 24 h [24]: 1.8 h
AUC at 24 h ([25]; Sprague-Dawley): 1150 ng·h/mL
Cmax at 24 h (in vivo [26]): 228 ng/mL
bioavailability at 24 h (in vivo [27]): 70%
SMILES: CN1Cc2cc3c(cc2C1)C(=O)N(C1CCC(=O)NC1=O)C3=O (stereo not given)

Second part, the compound before the results:

SMILES: O=C1CC[C@H](N2Cc3cc(N4CCN(CC5CCN(c6ccc([C@@H]7c8ccc(O)cc8CC[C@@H]7c7ccccc7)cc6)CC5)CC4)ccc3C2=O)C(=O)N1 [VEPDEGESTRANT]
Activity [6]: 78%
Activity [7]: 83%
Activity [8]: 77%
inhibition in vivo at 10 mg/kg (MCF7 [9]): 87%
Activity (MCF7 [10]): Active
Activity (MCF7 [11]): Active
inhibition in vivo at 30 mg/kg (MCF7 [12]): 47%
Activity (MCF7 [13]): Active
Activity [14]: Non-Toxic
Activity [15]: Non-Toxic
Activity [16]: Non-Toxic

SMILES: C[C@@H]1Cc2c([nH]c3ccccc23)[C@@H](c2c(F)cc(N3CCC4(CCN(C(=O)CN5Cc6cc7c(cc6C5)C(=O)N(C5CCC(=O)NC5=O)C7=O)CC4)CC3)cc2F)N1CC(C)(C)F (stereo not given in full)
DC50 [1]: 0.8 nM
Emax [2]: 83%
concentration at 1 h [28]: 7.9 ng/mL
concentration at 3 h [29]: 8.2 ng/mL
concentration at 6 h [30]: 8.3 ng/mL
concentration at 24 h [31]: 4 ng/mL

SMILES: O=C1CCC(N2C(=O)c3cc4c(cc3C2=O)CN(CC2CCN(CC3CCN(c5ccc([C@@H]6c7ccc(O)cc7CC[C@@H]6c6ccccc6)cc5)CC3)CC2)C4)C(=O)N1 (stereo not given in full)
Vd at 24 h [22]: 55.4 L/kg
half-life at 24 h [24]: 16 h
AUC ([25]; 24 h): 399 ng·h/mL
DC50 [1]: 4.3 nM
Emax [2]: 79%
F [32]: 36%
Cmax at 24 h (in vivo [26]): 24.9 ng/mL
